Source: patent US20230131899A1, “INHIBITORS OF MICROBIALLY INDUCED AMYLOID” (Axial Therapeutics, Inc., priority 2020, published 2023)
Read-outs that look alike come from different tables or passages of the source.

Columns and labels:
[1] = biological target: T1, E. coli CsgA (Escherichia coli, UniProt P28307); assay: In vitro ThioflavinT assay of CsgA aggregation (CsgA ThT Assay); type: biochemical; details: for CsgA ThT Assay (10 μM CsgA) % Control AUC at 1005 minutes, 25 μM (activity range) / CsgA ThT Assay (10 μM CsgA) % Control AUC at 1005 minutes, 25 μM / remaining activity at 25 µM: compound 25 μM; for CsgA ThT Assay (10 μM CsgA) % Control AUC at 1005 minutes, 100 μM (activity range) / CsgA ThT Assay (10 μM CsgA) % Control AUC at 1005 minutes, 100 μM / remaining activity at 100 µM: compound 100 μM; for CsgA ThT Assay (10 μM CsgA) % Control AUC at 1005 minutes, 25 μM / CsgA ThT Assay (10 μM CsgA) % Control AUC at 1005 minutes, 100 μM: mean AUC as % of DMSO control
T1 construct: made in house; host or cells: E. coli NEB 3016 slyD::kan, pET11d
Protocol: In vitro ThioflavinT assay to determine effects of compounds on CsgA aggregation. To assess the effects of compounds on aggregation of E. coli CsgA, a cell-free assay was performed using purified CsgA and Thioflavin T. In the assay, histidine-tagged CsgA was over-expressed in E. coli NEB 3016 slyD::kan cells harboring a pET11d vector containing a C-terminal 6× His tag. Following growth in rich media, CsgA production is induced at an OD600 of approximately 1.0 by addition of 0.5 mM IPTG (isopropyl beta-D-1-thiogalactopyranoside) followed by incubation at 37° C. for 1-4 hours with shaking at 200-250 rpm. Bacteria were resuspended in 8 M guanidine hydrochloride in 50 mM potassium phosphate buffer, pH 7.3 and lysed by sonication on ice using three 20 second intervals. The resulting lysate was incubated on a platform rocker for 1 hour at room temperature. After centrifugation at 10,000×g for 20 minutes, the supernatant was further sonicated on ice for three 20 second intervals and then incubated with nickel-nitrilotriacetic acid resin (Sigma) at room temperature for 1 hour in a 50 mL conical tube on a platform rocker. The resin was washed and pelleted 5 times with 45 mL 8 M guanidine in 50 mM potassium phosphate buffer pH 7.3. The resin was further washed and pelleted two times with 8 M guanidine hydrochloride in 50 mM potassium phosphate buffer pH 7.3 containing 12.5 mM imidazole. Purified CsgA protein was eluted two times with 5 mL of 6-8 M guanidine hydrochloride in 50 mM potassium phosphate buffer, pH 7.3 containing 250 mM imidazole. The eluted protein was aliquoted with 150 μL per aliquot, snap frozen in liquid nitrogen, and stored at −80 C. In order to obtain monomeric CsgA, the purified CsgA protein was thawed and passed through two pre-chilled desalting columns (Zeba) to remove imidazole and guanidine. The buffer exchanged protein was loaded onto a 30-kDa centrifugal filter unit (Amicon) and spun for 30 minutes at 7500×g to remove dimers and other oligomers. Protein concentration was assessed by the NanoDrop technique (Thermo Scientific), as is familiar to one skilled in the art. The CsgA aggregation assay was conducted in 96-well black non-binding surface or white untreated microplates with 20-40 μM ThioflavinT, 50 mM potassium phosphate buffer pH 7.3, 1% DMSO, CsgA at 2-20 μM, and compounds at 3.125-200 uM. The vehicle control wells contain all components of the assay except test compounds and represent the level of CsgA aggregation in the absence of any inhibitor or accelerator. Plates were incubated at room temperature in a Tecan Nano F200 plate reader with excitation at 438 nm using a 439 nm filter with a bandwidth of 8 nm, and emission at 495 nm with a 490 nm filter with a bandwidth of 10 nm, or in a SpectraMax M5, SpectraMax M2 or SpectraMax® i3X (Molecular Devices, San Jose, Calif.) spectrophotometer with excitation at 438 nm and emission at 495 nm. During the assay, plates were shaken initially for 5 seconds and subsequently for 3 seconds prior to fluorescent readings. Readings were performed every 15 minutes for up to 1005 minutes. The effect of compounds on CsgA aggregation in the assay was determined with data from 0-17 hours. Fluorescence values for each compound with CsgA were first adjusted by subtracting the average fluorescence of the compound in the absence of CsgA or in the presence of CsgA and compound at time 0 or 15 minutes. The data were analyzed in several ways:
1. The adjusted ThT fluorescence values were normalized by dividing them by the average fluorescence in the vehicle control wells containing CsgA. The median normalized fluorescence from 6-6.5 hours or 8-9 hours with the compound was expressed as a percentage of the median fluorescence observed in vehicle controls over the same time period. Percent inhibition of CsgA aggregation by a compound was determined by subtracting the percent average fluorescence with the compound relative to the vehicle controls from 100%. […]

[2] = system: CsgA gene expression (csgBAC promoter-GFP reporter) in E. coli UTI89; assay: In vitro live cell fluorescent reporter assay of CsgA transcription (Reporter Assay); type: cell-based
Protocol: In vitro live cell fluorescent reporter assay to determine effects of compounds on CsgA transcription. To assess the impact of compounds on CsgA gene expression, a live cell assay was performed using an engineered strain of E. coli UTI89 with a fluorescent CsgA gene expression reporter driven by the csgBAC promoter. In the reporter strain, a gene encoding Green Fluorescent Protein (GFP) was placed immediately downstream of the full intergenic region between csgDEF and csgBAC, containing the csgBAC promoter and other transcriptional regulatory elements, and inserted in single copy into the E. coli UTI89 chromosome, as described in Cegelski et. al., “Small-molecule inhibitors target Escherichia coli amyloid biogenesis and biofilm formation,” Nat. Chem. Bio., 25 Oct. 2009. With this construct, GFP expression in the reporter strain was under the same regulation as CsgA expression. The reporter strain was struck out on a YESCA agar plate (1 g/L yeast extract, 10 g/L casamino acids, 20 g/L Bacto Agar) and grown at about 27° C. for 2 days, or until single colonies were sufficiently large to pick. A single colony of the reporter strain was used to inoculate 5 mL of YESCA broth (1 g/L yeast extract, 10 g/L casamino acids), which was grown overnight at about 27° C. The inoculum was diluted 1:10 in YESCA broth and the optical density at 600 nm (OD600) was measured on a SpectraMax M2 or M5e (Molecular Devices, San Jose, Calif.) spectrophotometer in cuvettes. The culture was then further diluted to achieve a final OD600 of 0.003, which was confirmed by measurement of the OD600. Compounds were diluted in dimethyl sulfoxide (DMSO) and plated on black clear-bottomed tissue culture-treated 96-well plates with 1.5 μL/well for final test concentrations from 0.14-100 μM. All assay wells, including vehicle controls and positive controls for inhibition, included 1% DMSO final. Vehicle control wells consisted of DMSO and the reporter strain to assess the expression of the reporter strain in the assay in the absence of any compound. […] 148.5 μL culture at OD600 0.003 in YESCA broth was added to all wells for 150 μL final volume. Plates were incubated at 27° C. for 20 hours, then GFP fluorescence signal for each well was read on a Spectramax M2 or M5e plate reader with excitation at 485 nm, emission at 525 nm, and a cutoff at 515 nm. OD600 for each well was also measured on the Spectramax M2 or M5e plate reader. […] Background fluorescence was subtracted from all wells, then fluorescence signal for each well was normalized to the mean of the vehicle control wells. Normalized dose response curves were plotted for each compound, and compound inhibition of CsgA transcription was determined by assessing the curve-fit IC50, bottom, top, span (top-bottom), and Hill slope using GraphPad Prism software version 8.1.1 (GraphPad Software, San Diego, Calif.). An additional metric used to evaluate compounds was the concentration at which the curve reached 50% of the expression level of the vehicle control. This was written as a custom analysis in GraphPad Prism according to the formula X[50], or the X value at which Y=50, ie, the compound concentration at which fluorescence of the reporter strain was calculated to reach 50% of the vehicle control fluorescence. Separately from the fluorescence data, OD600 values were normalized to the mean of the vehicle control wells, and dose response curves were plotted for each compound. OD600 reduction of greater than 10% indicated compounds had some toxicity or negative impact on bacterial growth. […]

[3] = CsgA 10 μM, black plates, 1005 minutes, class symbol
[4] = CsgA 10 μM, black plates, 1005 minutes
[5] = read-out: Reporter Assay Abs IC50 (activity range), median Abs IC50 in the CsgA reporter assay, class symbol
[6] = read-out: Reporter Assay Abs IC50, median Abs IC50 in the CsgA reporter assay, N/A = maximum expression reduction is <50% of control
[7] = read-out: CsgA ThT Assay (2 μM CsgA) % Control Bmax 25 μM, activity range, class symbol, CsgA 2 μM, white plates
[8] = read-out: CsgA ThT Assay (2 μM CsgA) % Control Bmax 25 μM, mean Bmax as percentage of DMSO control, CsgA 2 μM, white plates
[9] = read-out: CsgA ThT Assay (2 μM CsgA) % Control Bmax 100 μM, activity range, class symbol, CsgA 2 μM, white plates
[10] = read-out: CsgA ThT Assay (2 μM CsgA) % Control Bmax 100 μM, mean Bmax as percentage of DMSO control, CsgA 2 μM, white plates
[11] = Escherichia coli, read-out: Reporter Assay Abs IC50 (μM), median Abs IC50 in the CsgA reporter assay, N/A = maximum expression reduction is <50% of control
[12] = Escherichia coli, read-out: Reporter Assay Abs IC50, activity range, class symbol
[13] = read-out: CsgA ThT Assay (10 μM CsgA) % Control AUC at 1005 minutes, 25 μM (activity range), CsgA 10 μM, black plates, 1005 minutes, class symbol
[14] = read-out: CsgA ThT Assay (10 μM CsgA) % Control AUC at 1005 minutes, 25 μM, mean AUC as % of DMSO control, CsgA 10 μM, black plates, 1005 minutes
[15] = read-out: CsgA ThT Assay (10 μM CsgA) % Control AUC at 1005 minutes, 100 μM (activity range), CsgA 10 μM, black plates, 1005 minutes, class symbol
[16] = read-out: CsgA ThT Assay (10 μM CsgA) % Control AUC at 1005 minutes, 100 μM, mean AUC as % of DMSO control, CsgA 10 μM, black plates, 1005 minutes
[17] = Escherichia coli, read-out: Reporter Assay Abs IC50 (activity range), median Abs IC50 in the CsgA reporter assay, class symbol

T1 sequence (P28307 23-151): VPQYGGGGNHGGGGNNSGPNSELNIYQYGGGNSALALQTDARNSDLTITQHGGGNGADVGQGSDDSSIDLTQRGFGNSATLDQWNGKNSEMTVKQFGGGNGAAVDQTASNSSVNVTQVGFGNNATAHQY

Compound	CsgA ThT Assay (10 μM CsgA) % Control AUC at 1005 minutes, 25 μM (activity range) [1, 3]	CsgA ThT Assay (10 μM CsgA) % Control AUC at 1005 minutes, 100 μM (activity range) [1, 3]	CsgA ThT Assay (10 μM CsgA) % Control AUC at 1005 minutes, 25 μM [1, 4] [%]	CsgA ThT Assay (10 μM CsgA) % Control AUC at 1005 minutes, 100 μM [1, 4] [%]	IC50 [2, 5] [µM]	IC50 [2, 6] [µM]	remaining activity at 25 µM [1, 7] [%]	remaining activity at 25 µM [1, 8] [%]	remaining activity at 100 µM [1, 9] [%]	remaining activity at 100 µM [1, 10] [%]	IC50 [2, 11] [µM]	IC50 [2, 12] [µM]	remaining activity at 25 µM [1, 13] [%]	remaining activity at 25 µM [1, 14] [%]	remaining activity at 100 µM [1, 15] [%]	remaining activity at 100 µM [1, 16] [%]	IC50 [2, 17] [µM]
CCCCCN1CC(C(=O)O)n2c(c(-c3cccc(C(F)(F)F)c3)c(Cc3cccc4ccccc34)cc2=O)S1(=O)=O (single isomer, unassigned) [Compound 025b, 8-(naphthalen-1-ylmethyl)-6-oxo-2-pentyl-9-(3-(trifluoromethyl)phenyl)-3,4-dihydro-2H,6H-pyrido[1,2-e][1,2,5]thiadiazine-4-carboxylic acid 1,1-dioxide]	(++) (% control AUC of 31 to 60%)	(+) (% control AUC of greater than 60%)	46	107	1.3 to 4.5	2.4											
O=C(O)[C@@H]1CN(Cc2ccccc2)c2c(-c3cccc(C(F)(F)F)c3)c(Cc3cccc4ccccc34)c(Br)c(=O)n21 (single isomer, unassigned) [Compound 189]							31 to 60	58	31 to 60	49	1.4	1.3 to 4.5					
O=C(O)C1CNS(=O)(=O)c2c(-c3cccc(C(F)(F)F)c3)c(C(F)(F)c3cccc4ccccc34)cc(=O)n21 (stereo not drawn) [Compound 137, 8-(difluoro(naphthalen-1-yl)methyl)-6-oxo-9-(3-(trifluoromethyl)phenyl)-3,4-dihydro-2H,6H-pyrido[1,2-e][1,2,5]thiadiazine-4-carboxylic acid 1,1-dioxide]							> 60	81	31 to 60	50	2.2	1.3 to 4.5					
Nc1c(Cc2cccc3ccccc23)c(-c2cccc(C(F)(F)F)c2)c2n(c1=O)C(C(=O)O)CO2 (stereo not drawn) [Compound 069, 6-amino-7-(naphthalen-1-ylmethyl)-5-oxo-8-(3-(trifluoromethyl)phenyl)-2,3-dihydro-5H-oxazolo[3,2-a]pyridine-3-carboxylic acid]											5.7		31 to 60	58	11 to 31	14	4.6 to 10
CCCN1CC(C(=O)O)n2c(c(-c3cccc(C(F)(F)F)c3)c(Cc3cccc4ccccc34)c(OCCc3ccccc3)c2=O)S1(=O)=O (stereo not drawn) [Compound 001, 8-(naphthalen-1-ylmethyl)-6-oxo-7-phenethoxy-2-propyl-9-(3-(trifluoromethyl)phenyl)-3,4-dihydro-2H,6H-pyrido[1,2-e][1,2,5]thiadiazine-4-carboxylic acid 1,1-dioxide]											1.5		31 to 60	36	31 to 60	35	1.3 to 4.5
O=C(O)C1CSc2c(-c3cccc(C(F)(F)F)c3)c(Cc3cccc4ccccc34)cc(=O)n21 (single isomer, unassigned) [Compound 011b, 7-(naphthalen-1-ylmethyl)-5-oxo-8-(3-(trifluoromethyl)phenyl)-2,3-dihydro-5H-thiazolo[3,2-a]pyridine-3-carboxylic acid]	(++) (% control AUC of 31 to 60%)	(++) (% control AUC of 31 to 60%)	54	53	1.3 to 4.5	4.1											
